{
  "source": "paper PMC10289903",
  "about": "(Investigational New Drugs, 2023)",
  "test_system": "locally advanced or metastatic solid tumors",
  "assay": "Preliminary antitumor activity (ORR, DCR, SD, PFS; RECIST v1.1)",
  "format": "in vivo, human",
  "details": "for Duration of response: confirmed partial response",
  "experimental": "Preliminary efficacy was assessed using objective response rate (ORR) in patients with measurable disease, disease control rate (DCR) and progression-free survival (PFS), all in accordance with RECIST v1.1 [17]. Responses for ORR required confirmation after at least 4 weeks.\nAfter initiation of treatment, tumor burden was assessed at baseline and every 8 weeks (± 1 week) for the qd 5/9 dosing, and every 9 weeks (± 1 week) for the qd 5/2 treatment schedule, respectively, using computed tomography or magnetic resonance imaging of the chest and abdomen or pelvis.\nThe per protocol analysis set was defined as a subset of the full analysis set, excluding subjects having an important protocol deviation, to be used for analyses of efficacy endpoints if appropriate.",
  "key": {"[1]": {"details": "qd 2.3: 250 mg qd 5/2 weekly (n=10)"}, "[2]": {"details": "qd 3.3: 300 mg 5/2 weekly (n=2)"}},
  "data": [
    {"smiles": "C=CCn1c(=O)c2cnc(Nc3ccc(N4CCN(C)CC4)cc3)nc2n1-c1cccc(C(C)(C)O)n1", "note": "[adavosertib, Adavosertib]", "values": [
      {"measurement": "Duration of response", "setting": "1 patient with anal carcinoma, qd 1.2 cohort", "result": 6.9, "unit": "months"},
      {"measurement": "Duration of response", "setting": "1 patient with thymoma, bid 2 cohort", "result": 3.7, "unit": "months"},
      {"measurement": "DCR, CP + PR + SD/n (%)", "setting": "Total (N=62)", "result": "48.4 CP + PR + SD/n (%)"},
      {"measurement": "Median PFS, months (95% CI)", "setting": "Total (N=62)", "result": "2.7 (2.0–3.8) months"},
      {"measurement": "ORR, CP + PR/n (%)", "setting": "Total, 58 patients with measurable disease at baseline", "result": "3.4 CP + PR/n (%)"},
      {"measurement": "Patients with confirmed (or unconfirmed) complete responses", "setting": "all cohorts", "result": "None"},
      {"measurement": "Patients alive and progression-free at data cutoff", "setting": "all cohorts (N=62)", "result": "14 (22.6%) n (%)"},
      {"measurement": "Patients who had experienced a PFS event at data cutoff", "setting": "all cohorts (N=62)", "result": "47 (75.8%) n (%)"},
      {"measurement": "DCR, CP + PR + SD/n (%)", "setting": "bid 2: 150 mg bid 5/9 (n=6)", "result": "2 (33.3) CP + PR + SD/n (%)"},
      {"measurement": "Median PFS, months (95% CI)", "setting": "bid 2: 150 mg bid 5/9 (n=6)", "result": "1.9 (1.0–NC) months"},
      {"measurement": "Patients progression-free at 6 months after first dose", "setting": "of 62 patients, 95% CI 10.0–32.2", "result": 19.8, "unit": "%"},
      {"measurement": "DCR, CP + PR + SD/n (%)", "setting": "qd 1.1: 200 mg qd 5/9 (n=5)", "result": "2 (40.0) CP + PR + SD/n (%)"},
      {"measurement": "Median PFS, months (95% CI)", "setting": "qd 1.1: 200 mg qd 5/9 (n=5)", "result": "2.0 (0.6–NC) months"},
      {"measurement": "ORR, CP + PR/n (%)", "setting": "qd 1.1: 200 mg qd 5/9 (n=5)", "result": "0 CP + PR/n (%)"},
      {"measurement": "DCR, CP + PR + SD/n (%)", "setting": "qd 1.2: 200 mg qd 5/2 (n=6)", "result": "2 (33.3) CP + PR + SD/n (%)"},
      {"measurement": "Median PFS, months (95% CI)", "setting": "qd 1.2: 200 mg qd 5/2 (n=6)", "result": "2.7 (1.2–9.0) months"},
      {"measurement": "DCR, CP + PR + SD/n (%)", "setting": "qd 2.1: 250 mg qd 5/9 (n=4)", "result": "1 (25.0) CP + PR + SD/n (%)"},
      {"measurement": "Median PFS, months (95% CI)", "setting": "qd 2.1: 250 mg qd 5/9 (n=4)", "result": "1.9 (1.8–4.1) months"},
      {"measurement": "ORR, CP + PR/n (%)", "setting": "qd 2.1: 250 mg qd 5/9 (n=4)", "result": "0 CP + PR/n (%)"},
      {"measurement": "DCR, CP + PR + SD/n (%)", "setting": "qd 2.2: 250 mg qd 5/2 (n=3)", "result": "2 (66.7) CP + PR + SD/n (%)"},
      {"measurement": "Median PFS, months (95% CI)", "setting": "qd 2.2: 250 mg qd 5/2 (n=3)", "result": "3.7 (1.2–11.0) months"},
      {"measurement": "ORR, CP + PR/n (%)", "setting": "qd 2.2: 250 mg qd 5/2 (n=3)", "result": "0 CP + PR/n (%)"},
      {"measurement": "DCR, CP + PR + SD/n (%)", "setting": "[1]", "result": "3 (30.0) CP + PR + SD/n (%)"},
      {"measurement": "Median PFS, months (95% CI)", "setting": "[1]", "result": "2.1 (0.6–4.1) months"},
      {"measurement": "ORR, CP + PR/n (%)", "setting": "[1]", "result": "0 CP + PR/n (%)"},
      {"measurement": "DCR, CP + PR + SD/n (%)", "setting": "qd 3.1: 300 mg qd 5/9 (n=4)", "result": "3 (75.0) CP + PR + SD/n (%)"},
      {"measurement": "Median PFS, months (95% CI)", "setting": "qd 3.1: 300 mg qd 5/9 (n=4)", "result": "7.6 (2.7–9.3) months"},
      {"measurement": "ORR, CP + PR/n (%)", "setting": "qd 3.1: 300 mg qd 5/9 (n=4)", "result": "0 CP + PR/n (%)"},
      {"measurement": "DCR, CP + PR + SD/n (%)", "setting": "qd 3.2: 300 mg qd 5/2 (n=16)", "result": "11 (68.8) CP + PR + SD/n (%)"},
      {"measurement": "Median PFS, months (95% CI)", "setting": "qd 3.2: 300 mg qd 5/2 (n=16)", "result": "3.2 (2.1–5.0) months"},
      {"measurement": "ORR, CP + PR/n (%)", "setting": "qd 3.2: 300 mg qd 5/2 (n=16)", "result": "0 CP + PR/n (%)"},
      {"measurement": "DCR, CP + PR + SD/n (%)", "setting": "[2]", "result": "0 CP + PR + SD/n (%)"},
      {"measurement": "Median PFS, months (95% CI)", "setting": "[2]", "result": "2.6 (NC–NC) months"},
      {"measurement": "ORR, CP + PR/n (%)", "setting": "[2]", "result": "0 CP + PR/n (%)"}
    ]}
  ]
}
